Assay results published in the supplement of paper PMC10307832.

Tests used:
Assay in all cases: relative viability (nuclei count vs DMSO), 5 days (fraction); higher = more cells survive
[1] = compound: CC1=NN=C(O1)C2=NN=C(C=C2)N3CCC(CC3)OC4=C(C=CC(=C4)F)Cl + C[C@@H](Oc1cc(-c2cnn(C3CCNCC3)c2)cnc1N)c1c(Cl)ccc(F)c1Cl [Crizotinib] (partner 1 µM)
Outline: (§1)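 Values are medians from duplicate plates. Each reflects relative viability, defined as the nuclei count of treated wells over that of vehicle wells. Lung cancer cell lines in 1536-well plates were pin-tool dosed one day after seeding with one drug alone or with a fixed anchor-drug dose plus five library-drug doses (not always all listed) in √10 steps, then fixed, stained and imaged at 4× after 5 days.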

[2] = compound: CC1=NN=C(O1)C2=NN=C(C=C2)N3CCC(CC3)OC4=C(C=CC(=C4)F)Cl + CC(C)C[C@H](NC(=O)[C@H](Cc1ccccc1)NC(=O)c1cnccn1)B(O)O [Bortezomib] (partner 0.002 µM)
Outline: as §1

[3] = compound: CC(C)C[C@@H](C(=O)N[C@H](C(=O)OC1CCCC1)c1ccccc1)[C@H](O)C(=O)NO [Tosedostat] + COc1cc2c(Oc3ccc(NC(=O)C4(C(=O)Nc5ccc(F)cc5)CC4)cc3F)ccnc2cc1OCCCN1CCOCC1 [Foretinib] (partner 0.25 µM)
Outline: as §1

[4] = compound: CC(C)C[C@@H](C(=O)N[C@H](C(=O)OC1CCCC1)c1ccccc1)[C@H](O)C(=O)NO [Tosedostat] + Cc1cc(Nc2cc(N3CCN(C)CC3)nc(Sc3ccc(NC(=O)C4CC4)cc3)n2)n[nH]1 [Tozasertib] (partner 0.1 µM)
Outline: as §1

Q: Which results are given for UMC-11?
A: relative viability ([1]; first compound 0.253 µM): 0.468; relative viability ([1]; first compound 0.8 µM): 0.474; relative viability ([1]; first compound 2.53 µM): 0.476; relative viability ([1]; first compound 8 µM): 0.487; relative viability ([2]; first compound 0.253 µM): 0.66; relative viability ([2]; first compound 0.8 µM): 0.533; relative viability ([2]; first compound 2.53 µM): 0.636; relative viability ([2]; first compound 8 µM): 0.575; relative viability ([3]; first compound 0.02 µM): 1.22; relative viability ([3]; first compound 0.06325 µM): 0.969; relative viability ([3]; first compound 0.2 µM): 1.02; relative viability ([3]; first compound 0.6325 µM): 1.09; relative viability ([3]; first compound 2 µM): 1.03; relative viability ([4]; first compound 0.02 µM): 0.214; relative viability ([4]; first compound 0.06325 µM): 0.195; relative viability ([4]; first compound 0.2 µM): 0.206; relative viability ([4]; first compound 0.6325 µM): 0.197; relative viability ([4]; first compound 2 µM): 0.194
